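Test compounds were applied to cells in 96-well plates for 48 hours at 5 doses. GI50 = concentration required for 50% inhibition of growth. Definition used: TGI = concentration required for complete inhibition of growth.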
These compounds were tested on LXFL 529 NSCLC (assay: NCI-60 cell line screen, 48 h).

Structure (SMILES)	TGI [µM]
c1ccc(P(=Nc2ccccc2N=P(c2ccccc2)(c2ccccc2)c2ccccc2)(c2ccccc2)c2ccccc2)cc1	12.1
CCO/C=C1\N=C(c2ccccc2Br)OC1=O	> 100
O=P1(Oc2ccccc2)C(c2ccccc2)C(c2ccccc2)=NN1c1ccccc1 (centres undefined)	45.7
COc1ccc(C=O)c(NC(=O)C(C)C)c1	> 100
Cc1cc2c(c(C(=O)O)c1C)-c1cccc(F)c1C2=O	> 100
Cc1cc(N(CCC#N)CCC#N)ccc1/C=C1/N=C(c2ccccc2)N(N)C1=O	> 100
CCCCCCCCCCCCCP(=O)(O)NCC(N)=O	> 100
CC1(C)OCC(C(O)C2OC(C)(C)OC2/C=N\O)O1 (centres undefined)	> 100

The compounds below were run on HOP-62 NSCLC (assay: NCI-60 cell line screen, 48 h).

Structure (SMILES)	TGI [µM]	GI50 [µM]
CC1CN1c1c(C(=O)/C=C/c2ccccc2)c(-c2ccccc2)nn(C)c1=O (centres undefined)	46.3	–
c1ccc(P(=Nc2ccccc2N=P(c2ccccc2)(c2ccccc2)c2ccccc2)(c2ccccc2)c2ccccc2)cc1	2.73	–
COCCOCOc1ccc(OCOCCOC)c2c1C(=O)c1ccccc1C2=O	> 100	–
CCO/C=C1\N=C(c2ccccc2Br)OC1=O	> 100	–
O=P1(Oc2ccccc2)C(c2ccccc2)C(c2ccccc2)=NN1c1ccccc1 (centres undefined)	71.3	–
COC(CN1C=C(Sc2ccccc2)CC1)OC	> 100	–
c1ccc2c3c([nH]c2c1)C1CCCN1CC3 (centres undefined)	> 10	–
Cc1cc2c(c(C(=O)O)c1C)-c1cccc(F)c1C2=O	> 100	–
Cc1ccc(NC(=O)c2ccccc2C(=O)O)cc1C	> 100	–
CC(C)=CCC/C(C)=C/CC/C(C)=C/CC/C=C(\C)CC/C=C(\C)CCC(=O)Nc1ccn(C2OC(CO)C(O)C2(F)F)c(=O)n1 (centres undefined)	2.38	0.0507
COc1ccc(-c2cc(=O)c3c(OC)c(OC)c(OC)c(OC)c3o2)cc1	> 100	–
CC(C)(C)CN1CCn2c(nc3c(N)nccc32)S1	> 100	17
COc1ccc2c(c1)OC1=C(C(=O)OC1)C2c1cc(OC)c2c(c1)OCO2 (centres undefined)	> 100	0.0411
Cc1cc(N(CCC#N)CCC#N)ccc1/C=C1/N=C(c2ccccc2)N(N)C1=O	> 100	–
CCn1c2ccccc2c2cc(/C=C(/C#N)C(N)=O)ccc21	41.8	4.81
COc1ccc(C(=O)N2c3ccccc3Sc3ccccc32)c(OC)c1	> 100	0.822
CN1CCN(CC(O)COc2c(Br)c(Br)c(Br)c3c2OC(C)(C)C3)CC1 (centres undefined)	25.1	4.26
CNS(=O)(=O)NNS(=O)(=O)c1ccc(Cl)cc1	> 100	–
CCN1C(=O)N(CC)C2C1NN=c1s/c(=C3\C(=O)N(CCc4ccccc4)c4ccccc43)c(=O)n12 (centres undefined)	9.97	0.697
CC1(C)N=C(N)N=C(N)N1c1ccc(CCCCc2ccc(S(=O)(=O)F)cc2)c(Cl)c1	23.7	1.45
CCCCCCCCCCCCCP(=O)(O)NCC(N)=O	> 100	–
N#CN1CC[C@H](C(=O)Nc2ncc(-c3ccncc3)s2)C1	3.92	0.0689
Cn1cc(-c2nonc2-c2cn(C)c3ccccc23)c2ccccc21	> 72.7	1.25
CC1(C)OCC(C(O)C2OC(C)(C)OC2/C=N\O)O1 (centres undefined)	> 100	–
O=[N+]([O-])c1cc(S(=O)(=O)Oc2ccccc2)ccc1Cl	19.2	6.06
COc1ccc(C(Cl)=C(c2ccc(OCCN(C)C)cc2)c2ccc(OCCN(C)C)cc2)cc1	10.4	–
Cn1cncc1CC1COC(=O)C1C(O)c1ccccc1 (centres undefined)	> 100	–
CCCCn1c(=O)c2c(nc3n2CCCN3CCc2ccc(OCC(=O)NCCN(CC)CC)cc2)n(CCCC)c1=O	14.7	5.75

What follows are compounds tested on NCI-H522 lung (assay: NCI-60 cell line screen, 48 h).

Structure (SMILES)	TGI [µM]	GI50 [µM]
CC1CN1c1c(C(=O)/C=C/c2ccccc2)c(-c2ccccc2)nn(C)c1=O (centres undefined)	26.2	–
c1ccc(P(=Nc2ccccc2N=P(c2ccccc2)(c2ccccc2)c2ccccc2)(c2ccccc2)c2ccccc2)cc1	2.24	–
CCO/C=C1\N=C(c2ccccc2Br)OC1=O	> 100	–
O=P1(Oc2ccccc2)C(c2ccccc2)C(c2ccccc2)=NN1c1ccccc1 (centres undefined)	36.4	–
c1ccc2c3c([nH]c2c1)C1CCCN1CC3 (centres undefined)	> 10	–
COc1ccc(C=O)c(NC(=O)C(C)C)c1	46.3	–
Cc1cc2c(c(C(=O)O)c1C)-c1cccc(F)c1C2=O	> 100	–
Cc1ccc(NC(=O)c2ccccc2C(=O)O)cc1C	> 100	–
CC(C)=CCC/C(C)=C/CC/C(C)=C/CC/C=C(\C)CC/C=C(\C)CCC(=O)Nc1ccn(C2OC(CO)C(O)C2(F)F)c(=O)n1 (centres undefined)	5.83	0.0854
COc1ccc(-c2cc(=O)c3c(OC)c(OC)c(OC)c(OC)c3o2)cc1	66.5	–
CC(C)(C)CN1CCn2c(nc3c(N)nccc32)S1	31.6	13.5
COc1ccc2c(c1)OC1=C(C(=O)OC1)C2c1cc(OC)c2c(c1)OCO2 (centres undefined)	0.0472	< 0.0111
Cc1cc(N(CCC#N)CCC#N)ccc1/C=C1/N=C(c2ccccc2)N(N)C1=O	92.1	–
CCn1c2ccccc2c2cc(/C=C(/C#N)C(N)=O)ccc21	> 100	11.7
COc1ccc(C(=O)N2c3ccccc3Sc3ccccc32)c(OC)c1	> 100	0.343
CN1CCN(CC(O)COc2c(Br)c(Br)c(Br)c3c2OC(C)(C)C3)CC1 (centres undefined)	28.5	6.15
CNS(=O)(=O)NNS(=O)(=O)c1ccc(Cl)cc1	> 100	–
CCN1C(=O)N(CC)C2C1NN=c1s/c(=C3\C(=O)N(CCc4ccccc4)c4ccccc43)c(=O)n12 (centres undefined)	3.95	0.337
CC1(C)N=C(N)N=C(N)N1c1ccc(CCCCc2ccc(S(=O)(=O)F)cc2)c(Cl)c1	16.7	0.419
CCCCCCCCCCCCCP(=O)(O)NCC(N)=O	86.2	–
N#CN1CC[C@H](C(=O)Nc2ncc(-c3ccncc3)s2)C1	0.0499	< 0.0149
Cn1cc(-c2nonc2-c2cn(C)c3ccccc23)c2ccccc21	> 100	0.402
CC1(C)OCC(C(O)C2OC(C)(C)OC2/C=N\O)O1 (centres undefined)	> 100	–
O=[N+]([O-])c1cc(S(=O)(=O)Oc2ccccc2)ccc1Cl	3.62	1.99
COc1ccc(C(Cl)=C(c2ccc(OCCN(C)C)cc2)c2ccc(OCCN(C)C)cc2)cc1	3.01	–
Cn1cncc1CC1COC(=O)C1C(O)c1ccccc1 (centres undefined)	> 100	–
CCCCn1c(=O)c2c(nc3n2CCCN3CCc2ccc(OCC(=O)NCCN(CC)CC)cc2)n(CCCC)c1=O	16.7	7.5

Each compound was assayed on HOP-92 NSCLC (assay: NCI-60 cell line screen, 48 h).

Structure (SMILES)	TGI [µM]	GI50 [µM]
CC1CN1c1c(C(=O)/C=C/c2ccccc2)c(-c2ccccc2)nn(C)c1=O (centres undefined)	46.7	–
c1ccc(P(=Nc2ccccc2N=P(c2ccccc2)(c2ccccc2)c2ccccc2)(c2ccccc2)c2ccccc2)cc1	0.573	–
COCCOCOc1ccc(OCOCCOC)c2c1C(=O)c1ccccc1C2=O	> 100	–
CCO/C=C1\N=C(c2ccccc2Br)OC1=O	> 100	–
COC(CN1C=C(Sc2ccccc2)CC1)OC	86.5	–
c1ccc2c3c([nH]c2c1)C1CCCN1CC3 (centres undefined)	> 10	–
COc1ccc(C=O)c(NC(=O)C(C)C)c1	53.5	–
Cc1ccc(NC(=O)c2ccccc2C(=O)O)cc1C	> 100	–
CC(C)=CCC/C(C)=C/CC/C(C)=C/CC/C=C(\C)CC/C=C(\C)CCC(=O)Nc1ccn(C2OC(CO)C(O)C2(F)F)c(=O)n1 (centres undefined)	11.5	0.435
COc1ccc(-c2cc(=O)c3c(OC)c(OC)c(OC)c(OC)c3o2)cc1	> 100	–
CC(C)(C)CN1CCn2c(nc3c(N)nccc32)S1	> 100	96.5
COc1ccc2c(c1)OC1=C(C(=O)OC1)C2c1cc(OC)c2c(c1)OCO2 (centres undefined)	> 100	28.6
Cc1cc(N(CCC#N)CCC#N)ccc1/C=C1/N=C(c2ccccc2)N(N)C1=O	99.9	–
CCn1c2ccccc2c2cc(/C=C(/C#N)C(N)=O)ccc21	> 91.4	16.9
COc1ccc(C(=O)N2c3ccccc3Sc3ccccc32)c(OC)c1	97.2	0.374
CN1CCN(CC(O)COc2c(Br)c(Br)c(Br)c3c2OC(C)(C)C3)CC1 (centres undefined)	12.2	3.1
CNS(=O)(=O)NNS(=O)(=O)c1ccc(Cl)cc1	> 100	–
CCN1C(=O)N(CC)C2C1NN=c1s/c(=C3\C(=O)N(CCc4ccccc4)c4ccccc43)c(=O)n12 (centres undefined)	15.6	2.55
CC1(C)N=C(N)N=C(N)N1c1ccc(CCCCc2ccc(S(=O)(=O)F)cc2)c(Cl)c1	26.1	5.56
CCCCCCCCCCCCCP(=O)(O)NCC(N)=O	> 100	–
N#CN1CC[C@H](C(=O)Nc2ncc(-c3ccncc3)s2)C1	0.761	0.0802
Cn1cc(-c2nonc2-c2cn(C)c3ccccc23)c2ccccc21	> 100	4.16
CC1(C)OCC(C(O)C2OC(C)(C)OC2/C=N\O)O1 (centres undefined)	> 100	–
O=[N+]([O-])c1cc(S(=O)(=O)Oc2ccccc2)ccc1Cl	3.39	1.75
COc1ccc(C(Cl)=C(c2ccc(OCCN(C)C)cc2)c2ccc(OCCN(C)C)cc2)cc1	6.1	–
Cn1cncc1CC1COC(=O)C1C(O)c1ccccc1 (centres undefined)	> 100	–
CCCCn1c(=O)c2c(nc3n2CCCN3CCc2ccc(OCC(=O)NCCN(CC)CC)cc2)n(CCCC)c1=O	3.45	0.846

These compounds were tested on CAKI-1 renal (assay: NCI-60 cell line screen, 48 h).

Structure (SMILES)	TGI [µM]	GI50 [µM]
CC1CN1c1c(C(=O)/C=C/c2ccccc2)c(-c2ccccc2)nn(C)c1=O (centres undefined)	81.7	–
c1ccc(P(=Nc2ccccc2N=P(c2ccccc2)(c2ccccc2)c2ccccc2)(c2ccccc2)c2ccccc2)cc1	3.72	–
COCCOCOc1ccc(OCOCCOC)c2c1C(=O)c1ccccc1C2=O	> 93	–
CCO/C=C1\N=C(c2ccccc2Br)OC1=O	> 100	–
O=P1(Oc2ccccc2)C(c2ccccc2)C(c2ccccc2)=NN1c1ccccc1 (centres undefined)	65	–
COC(CN1C=C(Sc2ccccc2)CC1)OC	> 100	–
c1ccc2c3c([nH]c2c1)C1CCCN1CC3 (centres undefined)	> 10	–
Cc1cc2c(c(C(=O)O)c1C)-c1cccc(F)c1C2=O	> 100	–
Cc1ccc(NC(=O)c2ccccc2C(=O)O)cc1C	> 100	–
CC(C)=CCC/C(C)=C/CC/C(C)=C/CC/C=C(\C)CC/C=C(\C)CCC(=O)Nc1ccn(C2OC(CO)C(O)C2(F)F)c(=O)n1 (centres undefined)	9.85	0.042
COc1ccc(-c2cc(=O)c3c(OC)c(OC)c(OC)c(OC)c3o2)cc1	> 100	–
CC(C)(C)CN1CCn2c(nc3c(N)nccc32)S1	> 100	25.3
COc1ccc2c(c1)OC1=C(C(=O)OC1)C2c1cc(OC)c2c(c1)OCO2 (centres undefined)	> 100	0.108
Cc1cc(N(CCC#N)CCC#N)ccc1/C=C1/N=C(c2ccccc2)N(N)C1=O	> 100	–
CCn1c2ccccc2c2cc(/C=C(/C#N)C(N)=O)ccc21	> 77.9	5.53
COc1ccc(C(=O)N2c3ccccc3Sc3ccccc32)c(OC)c1	> 100	0.573
CN1CCN(CC(O)COc2c(Br)c(Br)c(Br)c3c2OC(C)(C)C3)CC1 (centres undefined)	38.1	14.5
CNS(=O)(=O)NNS(=O)(=O)c1ccc(Cl)cc1	> 100	–
CCN1C(=O)N(CC)C2C1NN=c1s/c(=C3\C(=O)N(CCc4ccccc4)c4ccccc43)c(=O)n12 (centres undefined)	3.11	0.65
CC1(C)N=C(N)N=C(N)N1c1ccc(CCCCc2ccc(S(=O)(=O)F)cc2)c(Cl)c1	> 100	0.79
N#CN1CC[C@H](C(=O)Nc2ncc(-c3ccncc3)s2)C1	> 83.2	0.101
Cn1cc(-c2nonc2-c2cn(C)c3ccccc23)c2ccccc21	> 100	0.653
O=[N+]([O-])c1cc(S(=O)(=O)Oc2ccccc2)ccc1Cl	2.89	1.53
COc1ccc(C(Cl)=C(c2ccc(OCCN(C)C)cc2)c2ccc(OCCN(C)C)cc2)cc1	16.3	–
Cn1cncc1CC1COC(=O)C1C(O)c1ccccc1 (centres undefined)	> 100	–
CCCCn1c(=O)c2c(nc3n2CCCN3CCc2ccc(OCC(=O)NCCN(CC)CC)cc2)n(CCCC)c1=O	9.94	2.63

— PubChem BioAssay (NCI)
